Values of other authors in patent US6365170B1, “Use of a disinfectant for living fish” (USF Filtration & Separations Spa-Div. Perdomini, priority 1998, dated 2002).

System: salmon louse (Lepeophtheirus Salmonis)
Details: hydrogen peroxide around 1.5 g/l for longer than 20 minutes

In the case of `OO` [hydrogen peroxide], the success percentage is listed as ~100%.
